pKd: −log10 of the molar value.
Target: T1, PSMA (Homo sapiens, UniProt Q04609)
T1 construct: PSMA-positive 22Rv1 human prostate cancer cells; endogenous in cells; host or cells: 22Rv1 human prostate cancer cells
Experiment: Relative binding affinity of DUPA-NIR conjugates versus 100 nM DUPA-FITC (14) on PSMA-positive 22Rv1 human prostate cancer cells, flow cytometry
Conditions: PSMA-positive 22Rv1 cells, 1 h at 37° C., 100 nM DUPA-FITC competitor
Experimental: (§1) FIG. 3—Relative binding affinities of DUPA-NIR conjugates 1-9 with respect to DUPA-FITC (14). PSMA-positive 22Rv1 human prostate cancer cells were incubated for 1 h at 37° C. in the presence of 100 nM DUPA-FITC with increasing concentrations of DUPA-NIR conjugates. […] Cell bound fluorescence was assayed as using flow cytometry.
as §1, with “6—Relative” for “3—Relative”, “with aromatic amino acids linkers” for “1-9”
as §1, with “14—Relative” for “3—Relative”, “conjugates” for “conjugates 1-9”
PSMA-positive 22Rv1 human prostate cancer cells were incubated for 1 h at 37° C. in the presence of 100 nM DUPA-FITC with increasing concentrations of DUPA-NIR conjugates. […] Cell bound fluorescence was assayed as using flow cytometry.
FIG. 23—Relative binding affinities of DUPA-NIR conjugates with respect to DUPA-FITC (14). […] Cell bound fluorescence was assayed as using flow cytometry.
FIG. 31—Relative binding affinities of DUPA-NIR conjugates with respect to DUPA-FITC (14). […] Cell bound fluorescence was assayed as using flow cytometry.
FIG. 36—Relative binding affinities of PSMA-targeted NIR conjugates with respect to DUPA-FITC (14). […] Cell bound fluorescence was assayed as using flow cytometry.
FIG. 3 Relative binding affinities of DUPA-NIR conjugates 1-9 with respect to DUPA-FITC (14). […] Cell bound fluorescence was assayed as using flow cytometry.
FIG. 24: Relative binding affinities of DUPA-NIR conjugates with respect to DUPA-FITC (14). […] Cell bound fluorescence was assayed as using flow cytometry. […]

T1 sequence (Q04609 whole entry): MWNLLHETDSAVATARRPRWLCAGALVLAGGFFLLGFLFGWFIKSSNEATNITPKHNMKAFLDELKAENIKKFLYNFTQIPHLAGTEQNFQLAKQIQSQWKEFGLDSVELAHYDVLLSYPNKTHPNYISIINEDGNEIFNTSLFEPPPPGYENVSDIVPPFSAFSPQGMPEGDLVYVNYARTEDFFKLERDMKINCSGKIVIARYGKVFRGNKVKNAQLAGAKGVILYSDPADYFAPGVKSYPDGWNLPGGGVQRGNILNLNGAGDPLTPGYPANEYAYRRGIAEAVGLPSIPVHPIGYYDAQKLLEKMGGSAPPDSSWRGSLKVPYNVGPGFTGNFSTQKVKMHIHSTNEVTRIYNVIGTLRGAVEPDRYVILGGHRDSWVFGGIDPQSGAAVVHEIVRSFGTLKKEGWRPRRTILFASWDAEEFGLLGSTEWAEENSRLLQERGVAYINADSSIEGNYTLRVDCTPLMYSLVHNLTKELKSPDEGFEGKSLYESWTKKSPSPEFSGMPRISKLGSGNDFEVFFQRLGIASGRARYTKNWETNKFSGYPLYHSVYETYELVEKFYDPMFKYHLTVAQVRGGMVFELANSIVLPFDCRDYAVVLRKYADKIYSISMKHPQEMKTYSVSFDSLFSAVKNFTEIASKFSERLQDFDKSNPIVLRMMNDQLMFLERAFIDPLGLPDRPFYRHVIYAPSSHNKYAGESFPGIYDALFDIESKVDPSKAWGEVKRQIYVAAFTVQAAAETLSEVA

| pKd | SMILES |
| --- | --- |
| 6.85 | CC1(C)C(=CC=C2CCOC(C=CC3=[N+](CCCCS(=O)(=O)[O-])c4ccc(S(=O)(=O)O)cc4C3(C)C)=C2c2ccc(C(=O)NCCNC(=O)C(Cc3ccccc3)NC(=O)CCCCCCCNC(=O)CCC(NC(=O)NC(CCC(=O)O)C(=O)O)C(=O)O)cc2)N(CCCCS(=O)(=O)O)c2ccc(S(=O)(=O)O)cc21 (stereo not drawn) [Compound 62] |
| 6.50 | CC1(C)C(=CC=C2CCCC(C=CC3=[N+](CCCCS(=O)(=O)[O-])c4ccccc4C3(C)C)=C2SCC(NC(=O)C(Cc2ccccc2)NC(=O)C(Cc2ccccc2)NC(=O)CCCCCCCNC(=O)CCC(NC(=O)NC(CCC(=O)O)C(=O)O)C(=O)O)C(=O)O)N(CCCCS(=O)(=O)O)c2ccccc21 (stereo not drawn) [Compound 64] |
| 6.01 | CC1(C)C(=CC=C2CCCC(C=CC3=[N+](CCCCS(=O)(=O)[O-])c4ccccc4C3(C)C)=C2Oc2ccc(CC(NC(=O)C(CCCNC(=N)N)NC(=O)C(Cc3ccccc3)NC(=O)CCCCCCCNC(=O)CCC(NC(=O)NC(CCC(=O)O)C(=O)O)C(=O)O)C(=O)O)cc2)N(CCCCS(=O)(=O)O)c2ccccc21 (stereo not drawn) [Compound 65] |
